Test [1] can be described thus: cell viability loss, WST reduction – absorbance, cytotoxicity control for NOD2-RIPK2 interaction inhibitor project, late-stage follow-up (AID 652167). As to conditions: WST cytotoxicity, absorbance 620 nm; WST absorbance; at 10 µM; stronger effect = lower value.
For test [2], the system named is WST cytotoxicity, absorbance 620 nm. Described as above.

Active and inactive are the calls of the source. How the calls were made is not given here.

On to `O=[N+]([O-])c1cc(S(=O)(=O)N2CCCCCC2)ccc1F`, for which the absorbance in test [1] was determined as 0.991. Further, the IC50 in test [2] is > 10 µM (inactive).

`O=S(=O)(c1ccccc1)N1CCCCCC1` returned an absorbance in test [1] of 0.969. Besides, the IC50 in test [2] is > 10 µM (inactive).

In test [1], `O=[N+]([O-])c1cccc(S(=O)(=O)N2CCCCCC2)c1` came in with an absorbance of 0.999. Besides, the IC50 in test [2] was > 10 µM (inactive).

`Cc1cc(S(=O)(=O)N2CCCCCC2)ccc1F` had an absorbance in test [1] of 1. The IC50 in test [2] was > 10 µM (inactive).

`Cc1nc([N+](=O)[O-])c(Br)n1Cc1ccccc1`: the absorbance in test [1] is 0.991. Moreover, the IC50 in test [2] was > 10 µM (inactive).

On to `Cc1ncc([N+](=O)[O-])n1Cc1ccc(Cl)c(Cl)c1`, for which, in test [1], the absorbance was found to be 1.01. Further, in test [2], the IC50 was > 10 µM (inactive).

The compound `COc1ccc(C(C[N+](=O)[O-])n2nc(C)cc2C)cc1` (configuration not stated) returned an absorbance in test [1] of 0.973. In test [2], the IC50 was > 10 µM (inactive).

The compound `Cc1ccc(C(C[N+](=O)[O-])n2nc(C)cc2C)cc1` (configuration not stated) returned an absorbance in test [1] of 0.968. For the same compound, the IC50 in test [2] is > 10 µM (inactive).

Compound `O=S(=O)(c1ccc(F)cc1)N1CCCCCC1` came in with an absorbance in test [1] of 1. In addition, in test [2], the IC50 was > 10 µM (inactive).

In the case of `Cc1nc([N+](=O)[O-])c(Br)n1Cc1ccc(Cl)c(Cl)c1`, the absorbance in test [1] came to 0.974. Moreover, in test [2], the IC50 is > 10 µM (inactive).

Take `Cc1ccc(S(=O)(=O)N2CCCCCC2)cc1[N+](=O)[O-]`: the absorbance in test [1] was found to be 0.99. In addition, in test [2], the IC50 was > 10 µM (inactive).

For orientation: IC50 means the midpoint of a concentration-inhibition curve.

(Values after PubChem BioAssay AID652167 (The Scripps Research Institute Molecular Screening Center, 2013).)
